Experiments:
[1] = system: children with clinical signs and symptoms of a hyperkinetic disorder (HD); experiment: Comparative study versus piracetam in children with hyperkinetic disorder (SNAP-IV, TOVA, fine motor skills); type: in vivo, human; settings: for TOVA Commission errors, % / TOVA Omission errors, % / TOVA Response time: after two months
Excerpt: The study included 57 children aged from 6 to 9 years (40 boys and 17 girls), who were nursery/preschool attendants and primary school students.
The inclusion criteria were: 1. Children with clinical signs and symptoms of a hyperkinetic disorder (HD) meeting the ICD-10 criteria (F 90); 2. Age range: 6 to 9 years; 3. At least a medium IQ score (90 points) on the Wechsler Intelligence Scale.
The study excluded children with behavior disturbances related to other mental disorders. Children with HD signs and symptoms who were allocated to the group of test treatment (n=30) received AP drug as a monotherapy, at 2 tablets 3 times daily for 2 months.
This assessment was repeated following two months of treatment with AP drug (test group) and piracetam (control group). The scores obtained were compared with the normative rating results and statistically analyzed (Table 11).
The computer-based psychophysiological TOVA assessment involved three sets of tests measuring inattention (omission errors), impulsivity (commission errors), and speed of information processing (response time). The baseline measurements of HD children were compared with those obtained in the test group (AP drug) and in the control group (piracetam) after two months of treatment.

[2] = system: scopolamine-induced amnesia in male albino Wistar rats; experiment: Scopolamine-induced amnesia for passive avoidance conditioning; type: in vivo, rat
Method: A study was conducted to evaluate the nootropic effect of the claimed drug, formulated as a water solution (liquid dosage form) of the activated (potentized) energy-treated carrier, obtained by multiple consecutive dilution of the initial matrix solution in an aqueous-alcoholic diluent, combined with external mechanical impact—shaking of each resulting dilution, to a degree of 100^200, equivalent to a centesimal (C200) homeopathic dilution (wherein the energy treatment of the initial liquid carrier has been accomplished by exposing it to an electric current caused by a difference of potentials being applied to electrodes placed in the initial liquid carrier and which is proportional in amplitude to an amplified combined, summed signal, formed by summing the resultant signals—biopotential differences of individual referential derivations recorded in five healthy donors using the internationally recognized 10-20 system, which involves 19 active recording electrodes placed in regular positions all over the scalp and one reference electrode located on the ear-lobe)—further referred to as AP drug, using standard experimental approaches—by examining the test drug's antiamnestic effects in scopolamine-induced amnesia for passive avoidance conditioning in sexually mature rats. A total of 36 male albino Wistar rats were used for the study.
For amnesia induction, 15 minutes prior to passive avoidance training, the animals were administered a single intraperitoneal dose (2 mg/kg) of a muscarinic receptor antagonist—scopolamine.
AP drug was administered to 12 rats intragastrically, at 2.5 ml/kg daily, prior to training (1 hour before the start of the experiment), immediately after training, 24 hours post training, and 1 hour prior to the passive avoidance recall test. […]
On the memory recall test, the rats' behavior was evaluated by examining: latency time taken by test animals to first enter the dark compartment and total time spent therein over a certain time period.
The conditioning of passive avoidance behavior was as follows: On day 1, the animals were trained to stay in a shuttle box, which consisted of a large, 300×300×250 mm, white illuminated compartment (with transparent walls) and a smaller, 150×150×180 mm, black dark compartment with an electrical grid floor. […] For 3 minutes, the total times of the rat's stay in the small compartment and latency before moving in were recorded. […]
The data gathered were recorded as the mean (M) and standard error of the mean (SEM). […] The results of examining the rats' memory recall were analyzed for statistical significance with the Wilcoxon test. […]

[3] = system: pseudoneurotic disorder in patients with organic brain disease; experiment: Study of pseudoneurotic disorder in organic brain disease (anxiety levels, Hamilton scale); type: in vivo, human
Method: A study was conducted to examine the efficacy of the claimed drug, formulated as a water solution (liquid dosage form) of the activated (potentized) energy-treated carrier, obtained by multiple consecutive dilution of the initial matrix solution in an aqueous-alcoholic diluent, combined with external mechanical impact—shaking of each resulting dilution, to a degree of 100^200, equivalent to a centesimal (C200) homeopathic dilution (wherein the energy treatment of the initial neutral carrier has been accomplished by exposing it to an electric current caused by a difference of potentials being applied to electrodes placed in the initial liquid carrier and which is proportional in amplitude to an amplified combined, summed signal, formed by summing the resultant signals—biopotential differences of individual referential derivations recorded in five healthy donors using the internationally recognized 10-20 system, which involves 19 active recording electrodes placed in regular positions all over the scalp and one reference electrode located on the ear-lobe)—further referred to as AP drug—in treating pseudoneurotic disorder in patients with organic brain disease. […]

[4] = system: obsessive-compulsive disorder with prevailing anxiety disorders; experiment: Study versus Diazepam in obsessive-compulsive disorder (HAM-A, STAI, SAN); type: in vivo, human
Method: A study was conducted to examine the efficacy of the claimed drug, formulated as a water solution (liquid dosage form) of the activated (potentized) energy-treated carrier, obtained by multiple consecutive dilution of the initial matrix solution in an aqueous-alcoholic diluent, combined with external mechanical impact—shaking of each resulting dilution, to a degree of 100^200, equivalent to a centesimal (C200) homeopathic dilution (wherein the energy treatment of the initial neutral carrier has been accomplished by exposing it to an electric current caused by a difference of potentials being applied to electrodes placed in the initial liquid carrier and which is proportional in amplitude to an amplified combined, summed signal, formed by summing the resultant signals—biopotential differences of individual referential derivations recorded in five healthy donors using the internationally recognized 10-20 system, which involves 19 active recording electrodes placed in regular positions all over the scalp and one reference electrode located on the ear-lobe)—further referred to as AP drug—in treating obsessive-compulsive disorder.
The tolerability and anxiolytic efficacy of AP drug was examined versus Diazepam in patients with obsessive-compulsive disorder with prevailing anxiety disorders. Inclusion criteria: • 1. Subjects aged from 18 to 65 years. • 2. Subjects meeting the obsessive-compulsive disorder criteria (ICD-10 code F42). • 3. Subjects receiving no treatment with psychoactive agents at least for a week before and at the time of the trial.
The study included 20 patients (8 men and 12 women) aged between 19 and 62 years old. The mean patient age and mean duration of disease were 38.0±1.6 years and 2.1±0.5 years, respectively.
The duration of treatment was […]. The patients randomized to AP drug (45) received it at a dose of 20 drops 4 times daily; the rest 35 patients were assigned to receive Diazepam at 15 mg daily.
The patients were assessed for OCD symptom severity at baseline (day 0) and at days 7, 14, and 28.

[5] = system: depression in patients with post-traumatic stress disorders; experiment: Comparative trial versus Heptral in stress-related depression (HAM-D, HADS, CGI); type: in vivo, human; set-up: CGI Efficacy Index / CGI Severity scale total score / CGI Improvement scale total score: scale not given here
Method: A randomized, […] study was conducted to examine the efficacy and safety of the claimed drug, formulated as a solid dosage form containing lactose granules impregnated with water-alcohol solution of the liquid activated (potentized) energy-treated carrier, obtained by multiple consecutive dilution of the initial matrix solution in an aqueous-alcoholic diluent, combined with external mechanical impact—shaking of each resulting dilution, to a degree of 100^200, equivalent to a centesimal (C200) homeopathic dilution (wherein the energy treatment of the initial liquid carrier has been accomplished by exposing it to an electric current caused by a difference of potentials being applied to electrodes placed in the initial liquid carrier and which is proportional in amplitude to an amplified combined, summed signal, formed by summing the resultant signals—biopotential differences of individual referential derivations recorded in five healthy donors using the internationally recognized 10-20 system, which involves 19 active recording electrodes placed in regular positions all over the scalp and one reference electrode located on the ear-lobe)—further referred to as AP drug, where it was used for treating depression in patients with post-traumatic stress disorders.
AP drug was administered to manage the depressive symptoms—in parallel to Heptral (adametionine), used as a comparator in efficacy assessment. AP drug was administered for 4 weeks at a dose of 2 tablets 4 times daily. Heptral was used at 400 mg 3 times (1200 mg) daily.
An open comparative clinical trial was performed which involved 30 patients (16 men and 14 women) assigned to two parallel groups: 15 patients in the group of AP drug and 15 in the heptral group. The mean age of participants assigned to AP drug was 38.0±4.39 years;
The period of study participation was 8 weeks (the total treatment duration of 4 weeks and 4 weeks of follow-up).
Neither of the patient groups was allowed to take psychoactive medications during the study. The drugs not prohibited for use during the treatment were medications for the underlying traumatic illness and co-existing somatic disorders. The study enrolled inpatients aged from 18 to 65 years old, who had been receiving medical attention for bodily injuries resulting from car accidents, which had taken place under circumstances threatening the life or welfare of the patient or/and their friends or family members suffering from anxiety mental disorders, such as (defined by the ICD-10) reaction to severe stress, and adjustment disorders (F43); adjustment disorders (F43.2); adjustment disorder with mixed anxiety and depressed mood (F43.23).
1. Reduced severity of depressive symptoms and signs as measured by the HADS. 2. Reduced severity of depressive symptoms and signs as measured by the HAM-D 3. Efficacy Index assessment on the Clinical Global Impression (CGI) scale.
The patients' mental health was examined at baseline—at admission to the clinic, following 1, 2 and 4 weeks of treatment, and 4 weeks after treatment discontinuation (follow-up).
The effect of study treatment was evaluated according to changes in the total HAM-D score and scoring outcomes on the HADS anxiety and depression subscales. In addition, the Clinical Global Impression scale was administered to primarily estimate the Efficacy Index for the treatment conducted.

Compound: NC(=O)CN1CCCC1=O [piracetam]
- Children with increased disinhibition/excitability ([1]; 2 months): 11.1%
- Children with sleep problems ([1]; 2 months): 26%
- TOVA Commission errors, % ([1]; First section): 12.5 ± 3.2%
- TOVA Omission errors, % ([1]; First section): 13.6 ± 1.4 %
- TOVA Response time ([1]; First section): 736 ± 83 ms
- TOVA Commission errors, % ([1]; Second section): 21.1 ± 2.7%
- TOVA Omission errors, % ([1]; Second section): 17.2 ± 2.8 %
- TOVA Response time ([1]; Second section): 656 ± 79 ms
- Total score for fine motor skills ([1]; after treatment completion): 1.62 ± 0.16
- SNAP-IV Attention problems ([1]; after two months of treatment): 2.48 ± 0.12
- SNAP-IV Hyperactivity ([1]; after two months of treatment): 2.41 ± 0.10
- SNAP-IV Impulsivity ([1]; after two months of treatment): 2.28 ± 0.22
- Latency to enter the aversive compartment ([2]; Memory recall): 53.71 s
- Time spent in the black compartment ([2]; Memory recall): 13.11 s
- Latency to enter the aversive compartment ([2]; Training): 11.07 s
- Time spent in the black compartment ([2]; Training): 21.1 s

Compound: O=C1CN=C(c2ccccc2Cl)c2cc(Br)ccc2N1 [phenazepam]
- Hamilton scale score ([3]; after treatment): 31.7±1.5
- Hamilton scale score ([3]; baseline score): 32.8±1.4

Compound: CN1C(=O)CN=C(c2ccccc2)c2cc(Cl)ccc21 [Diazepam]
- HAM-A scores ([4]; Day 7): 19.02
- HAM-A scores ([4]; Day 14): 12.93
- Average reduction of HAM-A scores ([4]; at 28 days): 70.2%
- Percentage of patients exhibiting treatment response (50% reduction of mean HAM-A score and over) ([4]; at 28 days): 100%
- Mean SAN score ([4]; at treatment completion): 3.6
- Occurrence of adverse reactions ([4]; throughout the study): 82.9%
- Reduction in trait anxiety scores (STAI) ([4]; treatment completion): 22.3%
- Reduction of situational anxiety (STAI) scores ([4]; treatment completion): 29.6%

Compound: C[S+](CC[C@H](N)C(=O)[O-])C[C@H]1O[C@@H](n2cnc3c(N)ncnc32)[C@H](O)[C@@H]1O (stereo partly shown) [Heptral, adametionine]
- CGI Severity scale total score ([5]; Visit 1 (baseline)): 3.8 ± 0.17
- Total HADS depression score ([5]; Visit 1 (baseline), n = 15): 17.5
- Total HAM-D score ([5]; Visit 1 (baseline), n = 15): 26.2
- CGI Efficacy Index ([5]; Visit 2 (week 1)): 1.1 ± 0.08
- CGI Improvement scale total score ([5]; Visit 2 (week 1)): 2.9 ± 0.07
- CGI Severity scale total score ([5]; Visit 2 (week 1)): 2.9 ± 0.12
- Total HADS depression score ([5]; Visit 2 (week 1)): 13.2
- Total HAM-D score ([5]; Visit 2 (week 1)): 23.1
- CGI Efficacy Index ([5]; Visit 3 (week 2)): 1.8 ± 0.19
- CGI Improvement scale total score ([5]; Visit 3 (week 2)): 2.1 ± 0.15
- CGI Severity scale total score ([5]; Visit 3 (week 2)): 1.9 ± 0.12
- Total HADS depression score ([5]; Visit 3 (week 2)): 9.6
- Total HAM-D score ([5]; Visit 3 (week 2)): 15.6
- CGI Efficacy Index ([5]; Visit 4 (week 4)): 2.3 ± 0.18
- CGI Improvement scale total score ([5]; Visit 4 (week 4)): 1.2 ± 0.11
- CGI Severity scale total score ([5]; Visit 4 (week 4)): 1.1 ± 0.07
- Total HADS depression score ([5]; Visit 4 (week 4)): 6.5
- Total HAM-D score ([5]; Visit 4 (week 4)): 14.1
- CGI Efficacy Index ([5]; Visit 5 (follow-up)): 2.3 ± 0.18
- CGI Improvement scale total score ([5]; Visit 5 (follow-up)): 1.1 ± 0.07
- CGI Severity scale total score ([5]; Visit 5 (follow-up)): 1.0 ± 0.00
- Total HADS depression score ([5]; Visit 5 (follow-up)): 3.5
- Total HAM-D score ([5]; Visit 5 (follow-up)): 12.1
- Adverse event anxiety worsening ([5]; group of 15): 2 patients
- Adverse event dizziness ([5]; group of 15): 5 patients
- Adverse event headache ([5]; group of 15): 3 patients

From patent US20170333560A1, “Pharmaceutical Composition That Includes A Neutral Carrier Treated With Energy And Related Methods Of Treatment” (priority 2016, published 2017)
